According to ChEMBL document CHEMBL1201862, “PubChem BioAssay data set” (2004):
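Each compound was tested at five concentrations against cells in 96-well plates for 48 hours. GI50 marks 50% less growth.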 Active and inactive are the calls of the source. Cut-off read from the data, not from the text of the source: active = GI50 up to about 1.1 µM and inactive = higher.

Assays:
Assay in all cases: NCI tumour cell line growth inhibition, 48 h
[1] = test system: OVCAR-3
[2] = test system: NCI-H522
[3] = test system: OVCAR-4
[4] = test system: PC-3
[5] = test system: SK-OV-3
[6] = test system: LOX IMVI
[7] = test system: MDA-N
[8] = test system: SNB-78
[9] = test system: SW-620
[10] = test system: CAKI-1
[11] = test system: MDA-MB-435
[12] = test system: TK-10
[13] = test system: SR
[14] = test system: RXF 393
[15] = test system: OVCAR-5
[16] = test system: HT-29
[17] = test system: HOP-62
[18] = test system: A498
[19] = test system: HCT-116
[20] = test system: ACHN
[21] = test system: HOP-18
[22] = test system: UACC-257
[23] = test system: SK-MEL-28
[24] = test system: NCI-H460
[25] = test system: IGROV-1
[26] = test system: KM-20L2
[27] = test system: DMS-114
[28] = test system: RXF 631
[29] = test system: K562
[30] = test system: SF-539
[31] = test system: CCRF-CEM
[32] = test system: 786-0
[33] = test system: SF-295
[34] = test system: UO-31
[35] = test system: MCF7
[36] = test system: DMS-273
[37] = test system: EKVX
[38] = test system: MOLT-4
[39] = test system: SK-MEL-5
[40] = test system: T47D
[41] = test system: XF498
[42] = test system: SNB-19
[43] = test system: DU-145
[44] = test system: SN12C
[45] = test system: HCC 2998
[46] = test system: COLO 205
[47] = test system: KM12
[48] = test system: OVCAR-8
[49] = test system: Malme-3M
[50] = test system: U-251
[51] = test system: HL-60
[52] = test system: SK-MEL-2
[53] = test system: LXFL 529
[54] = test system: UACC-62
[55] = test system: M14
[56] = test system: HCT-15
[57] = test system: RPMI-8226
[58] = test system: BT-549
[59] = test system: NCI-H23
[60] = test system: NCI-H226
[61] = test system: SF-268
[62] = test system: SNB-75
[63] = test system: DLD-1
[64] = test system: A549
[65] = test system: HOP-92
[66] = test system: M19-MEL

Measured: GI50

CCOC(=O)C(=Cc1ccc(Oc2ccccc2)cc1)C(=O)OCC
2.44 µM: [56]
inactive: [1] 6.38 µM | [2] 4.22 µM | [3] 7.59 µM | [4] 2.16 µM | [5] 7.05 µM | [6] 1.47 µM | [7] 4.41 µM | [8] 5.7 µM | [9] 2.22 µM | [10] 14.1 µM | [11] 2.58 µM | [12] 7.74 µM | [13] 2.52 µM | [14] 1.89 µM | [15] 4.44 µM | [16] 3.18 µM | [17] 3.28 µM | [18] 15.3 µM | [19] 2.31 µM | [20] 6.3 µM | [21] 13.8 µM | [22] 2.42 µM | [23] 3.56 µM | [24] 18.2 µM | [25] 6.81 µM | [26] 4.65 µM | [27] 3.07 µM | [28] 3.03 µM | [29] 1.87 µM | [30] 3.84 µM | [31] 2.03 µM | [32] 1.85 µM | [33] 5.13 µM | [34] 4.35 µM | [35] 4.09 µM | [36] 1.69 µM | [37] 15.4 µM | [38] 1.92 µM | [39] 1.98 µM | [40] 5.85 µM | [41] 4.32 µM | [42] 5.73 µM | [43] 11.6 µM | [44] 2.27 µM | [45] 10.6 µM | [46] 4.06 µM | [47] 5.98 µM | [48] 2.19 µM | [49] 2.56 µM | [50] 3.35 µM | [51] 1.73 µM | [52] 1.85 µM | [53] 2.29 µM | [54] 1.63 µM | [55] 3.82 µM | [57] 2.79 µM | [58] 1.84 µM | [59] 2.58 µM | [60] 3.17 µM | [61] 3.32 µM | [62] 2.66 µM | [63] 2.14 µM | [64] 8.45 µM | [65] 4.03 µM

CN(C)C(=O)Oc1c(-c2ccccc2)c(=O)n2c3ccccc3n3c(=O)n(C)c(=O)c1c23
inactive: [1] > 100 µM | [3] > 100 µM | [5] > 100 µM | [6] > 100 µM | [8] > 100 µM | [9] > 100 µM | [10] > 100 µM | [12] > 100 µM | [13] > 100 µM | [14] > 100 µM | [15] > 100 µM | [16] > 100 µM | [17] > 100 µM | [18] > 100 µM | [19] > 100 µM | [20] > 100 µM | [21] > 100 µM | [22] > 100 µM | [23] > 100 µM | [24] > 100 µM | [25] > 100 µM | [27] > 100 µM | [28] > 100 µM | [30] > 100 µM | [32] > 100 µM | [66] > 100 µM | [33] > 100 µM | [34] > 100 µM | [36] > 100 µM | [37] > 100 µM | [38] > 100 µM | [39] > 100 µM | [41] > 100 µM | [42] > 100 µM | [44] > 100 µM | [45] > 100 µM | [46] > 100 µM | [47] > 10 µM | [48] > 100 µM | [49] > 100 µM | [50] > 100 µM | [52] > 100 µM | [53] > 100 µM | [54] > 100 µM | [55] > 100 µM | [57] > 100 µM | [59] > 100 µM | [61] > 100 µM | [62] 72.3 µM | [63] > 100 µM | [64] > 100 µM | [65] > 100 µM
> 100 µM: [56]
